Reference: patent US20090124672A1 (priority 2007, published 2009)
“And” between values parts separate entries of the source, which are not always exact repeats. Equal entries are not always repeated.

Legend:
[1] = target: T1, hALDH2 (recombinant human mitochondria ALDH) (Homo sapiens, UniProt P05091); assay: ALDH2 inhibition assay (NADH formation, formaldehyde substrate); assay type: biochemical; conditions: for inhibition at 1 µM: read-out: hALDH2 inhibition (IC50 hALDH2 column)
T1 sequence (P05091 18-517): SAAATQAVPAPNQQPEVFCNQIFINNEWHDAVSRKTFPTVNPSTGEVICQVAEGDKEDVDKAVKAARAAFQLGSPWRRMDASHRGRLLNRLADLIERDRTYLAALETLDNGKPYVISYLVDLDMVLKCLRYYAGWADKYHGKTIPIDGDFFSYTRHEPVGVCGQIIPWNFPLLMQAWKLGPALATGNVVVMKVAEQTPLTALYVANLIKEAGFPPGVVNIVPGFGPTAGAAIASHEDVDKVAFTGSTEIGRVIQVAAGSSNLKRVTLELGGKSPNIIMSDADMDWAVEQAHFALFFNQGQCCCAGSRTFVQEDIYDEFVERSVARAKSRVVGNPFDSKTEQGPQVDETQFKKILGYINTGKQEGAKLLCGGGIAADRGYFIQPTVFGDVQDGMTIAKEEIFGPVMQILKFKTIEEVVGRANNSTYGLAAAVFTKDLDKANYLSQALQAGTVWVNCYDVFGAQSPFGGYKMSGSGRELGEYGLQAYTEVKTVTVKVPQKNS
Procedure: ALDH2 inhibition assays were performed in sodium phosphate buffer (50 mM, pH 7.4) containing 1.2 mM NAD^+ (Sigma N7004), 1 nM hALDH2 (recombinant human mitochondria ALDH), various concentrations of test compounds (from 0.03 nM to 1000 nM), and 0.15 mM freshly prepared formaldehyde solution (Ladd Research 20295). Reactions were initiated by the addition of formaldehyde and rates were recorded by monitoring NADH formation in a temperature controlled (25° C.) FluoroMax-2 Fluorimeter with excitation and emission wavelengths set at 340 and 460 nm, respectively. […] Normally, IC50 values were determined by fitting concentration-inhibition data to sigmoidal dose-response curves with two-floating parameters: IC50 and Hill coefficient. When tight binding situation was suspected, apparent Ki values were estimated by fitting dose-response data to Morrison's equation [Methods in Enzymology 63, 437-467, 1979].

hMAO-B = target: T2, hMAO-B (Homo sapiens, UniProt P27338); assay: MAO-B inhibition assay (Amplex Red, horseradish peroxidase-coupled); assay type: biochemical; conditions: for hMAO-B inhibition (IC50 hMAO-B) / inhibition at 10 µM: at 10 μM; for inhibition at 10 µM: read-out: hMAO-B inhibition (IC50 hMAO-B)
T2 construct: purchased Sigma M7441
T2 sequence (P27338 1-520): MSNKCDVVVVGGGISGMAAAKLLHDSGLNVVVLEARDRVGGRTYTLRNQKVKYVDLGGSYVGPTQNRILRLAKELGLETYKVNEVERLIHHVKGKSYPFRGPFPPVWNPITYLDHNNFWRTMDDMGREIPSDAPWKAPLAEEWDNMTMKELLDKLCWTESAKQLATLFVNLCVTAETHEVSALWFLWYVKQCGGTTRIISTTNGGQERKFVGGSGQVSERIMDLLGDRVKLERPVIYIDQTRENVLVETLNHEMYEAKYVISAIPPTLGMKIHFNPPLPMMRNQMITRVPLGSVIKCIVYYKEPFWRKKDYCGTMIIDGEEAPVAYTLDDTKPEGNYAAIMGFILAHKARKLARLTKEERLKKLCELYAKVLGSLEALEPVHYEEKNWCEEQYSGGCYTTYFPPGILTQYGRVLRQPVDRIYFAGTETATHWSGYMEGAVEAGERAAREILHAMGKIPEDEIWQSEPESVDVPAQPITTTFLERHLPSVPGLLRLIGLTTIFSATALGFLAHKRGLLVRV
Procedure: MAO-A (Sigma M7316) and MAO-B (Sigma M7441) inhibition assays were conducted in 96-well micro-plates according to the method described by Zhou et al. [Analytical Biochemistry 253, 169-174, 1997]. Both assays were performed in potassium phosphate buffer (0.1 M, pH 7.5) containing 0.5 mM tyramine (Sigma T2879), 0.12 mM N-acetyl-3,7-dihydrophenoxazine (Amplex Red, Invitrogen A12222), 1.2 unit/ml horseradish peroxidase (Sigma P2088), 0.6 unit/ml MAO-A or 2.5 unit/ml MAO-B, and various concentrations of test compounds (0.1 nM to 10 uM). Reactions were initiated by the addition of a pre-mixed solution of tyramine, horseradish peroxidase and Amplex Red, and were allowed to proceed at 37° C. for 30 min. Enzyme activities were determined by measuring absorbance at 570 nm (SpectralMax Plate reader), absorbance of oxidized Amplex Red generated by this horseradish peroxidase-coupled reaction. Nonspecifically formed products were determined in the presence of 2 and 10 µM clorgyline and deprenyl for MAO-A and MAO-B, respectively. IC50 values were determined by fitting concentration-inhibition data to sigmoidal dose-response curves with two-floating parameters: IC50 and Hill coefficient.

Row | Molecule | IC50 [1] | further results
1 | 7-({5-[3-fluoro-5-(trifluoromethyl)phenyl](1,2,4-oxadiazol-3-yl)}ethoxy)-3-(4-hydroxyphenyl)chromen-4-one [PT-79] | 48 nM | hMAO-B inhibition (IC50 hMAO-B) (hMAO-B): 18%
2 | O=c1c(-c2ccc(O)cc2)coc2cc(OCc3noc(-c4ccc(F)cc4)n3)ccc12 [PT-11, 7-{[5-(4-fluorophenyl)(1,2,4-oxadiazol-3-yl)]methoxy}-3-(4-hydroxyphenyl)chromen-4-one] | 16 nM and 20 nM | inhibition at 10 µM (hMAO-B): 35%
3 | COC(=O)c1cccc(COc2ccc3c(=O)c(-c4ccc(O)cc4)coc3c2)c1 [PT-33, methyl 3-{[3-(4-hydroxyphenyl)-4-oxochromen-7-yloxy]methyl}benzoate] | 150 nM | IC50 (hMAO-B): 300 nM
4 | O=c1c(-c2ccc(O)cc2)coc2cc(OCc3cc(-c4cccc(C(F)(F)F)c4)on3)ccc12 [PT-45, 3-(4-hydroxyphenyl)-7-({5-[3-(trifluoromethyl)phenyl]isoxazol-3-yl}methoxy)chromen-4-one] | 98 nM | hMAO-B inhibition (IC50 hMAO-B) (hMAO-B): 7%; inhibition at 10 µM (hMAO-B): 7%
5 | CS(=O)(=O)Nc1ccc(-c2coc3cc(OCc4cnc(-c5ccc(C(F)(F)F)cc5)s4)ccc3c2=O)cc1 [PT-83, 3-{4-[(methylsulfonyl)amino]phenyl}-7-({2-[4-(trifluoromethyl)phenyl](1,3-thiazol-5-yl)}methoxy)chromen-4-one] | 25 nM | –
6 | O=C(COc1ccc2c(=O)c(-c3ccc(O)cc3)coc2c1)c1ccccc1C(F)(F)F [PT-85, 3-(4-hydroxyphenyl)-7-{2-oxo-2-[2-(trifluoromethyl)phenyl]ethoxy}chromen-4-one] | 70 nM | –
7 | O=c1c(-c2ccc3[nH]ncc3c2)coc2cc(OCc3noc(-c4cc(F)cc(C(F)(F)F)c4)n3)ccc12 [PT-86, 3-(1H-indazol-5-yl)-7-({5-[5-fluoro-3-(trifluoromethyl)phenyl](1,2,4-oxadiazol-3-yl)}methoxy)chromen-4-one] | – | inhibition at 1 µM ([1]; at 1 μM): 68%
8 | O=c1c(-c2ccc(O)cc2)coc2cc(OCc3cc(-c4ccc(Cl)cc4)on3)ccc12 [PT-95, 7-{[5-(4-chlorophenyl)isoxazol-3-yl]methoxy}-3-(4-hydroxyphenyl)chromen-4-one] | – | hALDH2 inhibition (IC50 hALDH2 column) ([1]; at 1 μM): 57%; inhibition at 1 µM ([1]; at 1 μM): 57%
9 | O=c1c(-c2ccc(O)cc2)coc2cc(OCc3cc(-c4ccc(Cl)c(Cl)c4)on3)ccc12 [PT-96, 7-{[5-(3,4-dichlorophenyl)isoxazol-3-yl]methoxy}-3-(4-hydroxyphenyl)chromen-4-one] | – | inhibition at 1 µM ([1]; at 1 μM): 47%
10 | O=c1c(-c2ccc(O)cc2)coc2cc(OCc3nc(-c4cccnc4)no3)ccc12 [PT-114, 3-(4-hydroxyphenyl)-7-[(3-(3-pyridyl)(1,2,4-oxadiazol-5-yl))methoxy]chromen-4-one] | 32 nM | –
11 | O=c1c(-c2ccc(O)cc2)coc2cc(OCc3nc(-c4cccc(C(F)(F)F)c4)no3)ccc12 [PT-115, 3-(4-hydroxyphenyl)-7-({3-[3-(trifluoromethyl)phenyl](1,2,4-oxadiazol-5-yl)}methoxy)chromen-4-one] | 38 nM | –
12 | CNC(=O)c1coc(COc2ccc3c(=O)c(-c4ccc(O)cc4)coc3c2)n1 [PT-118, (2-{[3-(4-hydroxyphenyl)-4-oxochromen-7-yloxy]methyl}(1,3-oxazol-4-yl))-N-methylcarboxamide] | 23 nM | –
13 | COc1ccc2c(COc3ccc4c(=O)c(-c5ccc(O)cc5)coc4c3)cc(=O)oc2c1 [PT-119, 4-{[3-(4-hydroxyphenyl)-4-oxochromen-7-yloxy]methyl}-7-methoxychromen-2-one] | 68 nM | –
14 | CS(=O)(=O)Nc1ccc(-c2coc3cc(OCc4nnc(-c5ccc(F)cc5)o4)ccc3c2=O)cc1 [PT-120, 7-{[5-(4-fluorophenyl)(1,3,4-oxadiazol-2-yl)]methoxy}-3-{4-[(methylsulfonyl)amino]-phenyl}chromen-4-one] | 276 nM | –

Now from value to molecule, other results behind:

Row | IC50 [1] | Molecule | further results
15 | 18 nM | 3-(4-hydroxyphenyl)-7-(2-{4-[3-(trifluoromethyl)phenyl]piperazinyl}ethoxy)chromen-4-one [PT-124] | hMAO-B inhibition (IC50 hMAO-B) (hMAO-B): 21%
16 | 17 nM | 3-(4-hydroxyphenyl)-7-[(5-(3-pyridyl)(1,3,4-oxadiazol-2-yl))ethoxy]chromen-4-one [PT-113] | hMAO-B inhibition (IC50 hMAO-B) (hMAO-B): 30%
17 | 5 nM | COC(=O)c1cnc(COc2ccc3c(=O)c(-c4ccc(O)cc4)coc3c2)o1 [PT-47, methyl 2-{[3-(4-hydroxyphenyl)-4-oxochromen-7-yloxy]methyl}-1,3-oxazole-5-carboxylate] | inhibition at 10 µM (hMAO-B): 34%
18 | 16 nM | O=c1c(-c2ccc(O)cc2)coc2cc(OC[C@H](O)CNCc3cccc(C(F)(F)F)c3)ccc12 [PT-53, 7-[(2R)-2-hydroxy-3-({[3-(trifluoromethyl)phenyl]methyl}amino)propoxy]-3-(4-hydroxyphenyl)chromen-4-one] | hMAO-B inhibition (IC50 hMAO-B) (hMAO-B): 19%; inhibition at 10 µM (hMAO-B): 19%
19 | 8 nM | O=c1c(-c2ccc(O)cc2)coc2cc(OC[C@H](O)CNCc3cc(F)cc(F)c3)ccc12 [PT-55, 7-((2R)-3-{[(3,5-difluorophenyl)methyl]amino}-2-hydroxypropoxy)-3-(4-hydroxyphenyl)chromen-4-one] | hMAO-B inhibition (IC50 hMAO-B) (hMAO-B): 14%; inhibition at 10 µM (hMAO-B): 14%
20 | 17 nM | O=c1c(-c2ccc(OCc3ccccn3)cc2)coc2cc(OCc3ccccn3)ccc12 [PT-93, 7-(2-pyridylmethoxy)-3-[4-(2-pyridylmethoxy)phenyl]chromen-4-one] | –
21 | 20 nM | O=c1c(-c2ccc(O)cc2)coc2cc(OCc3cncc(C(F)(F)F)c3)ccc12 [PT-94, 3-(4-hydroxyphenyl)-7-{[5-(trifluoromethyl)(3-pyridyl)]methoxy}chromen-4-one] | –
22 | 5 nM | O=c1c(-c2ccc(O)cc2)coc2cc(OCCNCc3cccc(C(F)(F)F)c3)ccc12 [PT-99, 3-(4-hydroxyphenyl)-7-[2-({[3-(trifluoromethyl)phenyl]methyl}amino)ethoxy]chromen-4-one] | –
23 | 16 nM | O=C(O)c1coc(COc2ccc3c(=O)c(-c4ccc(O)cc4)coc3c2)n1 [PT-102, 2-{[3-(4-hydroxyphenyl)-4-oxochromen-7-yloxy]methyl}-1,3-oxazole-4-carboxylic acid] | –
24 | 7 nM | O=c1c(-c2ccc(O)cc2)coc2cc(OCc3nnc(-c4cccnc4)o3)ccc12 [PT-110, 3-(4-hydroxyphenyl)-7-[(5-(3-pyridyl)(1,3,4-oxadiazol-2-yl))methoxy]chromen-4-one] | –
25 | 11 nM | Nc1cccc(-c2nnc(COc3ccc4c(=O)c(-c5ccc(O)cc5)coc4c3)o2)c1 [PT-121, 7-{[5-(3-aminophenyl)(1,3,4-oxadiazol-2-yl)]methoxy}-3-(4-hydroxyphenyl)chromen-4-one] | –
26 | 12 nM | CCOC(=O)c1cnn(CCOc2ccc3c(=O)c(-c4ccc(O)cc4)coc3c2)c1 [PT-122, ethyl 1-{2-[3-(4-hydroxyphenyl)-4-oxochromen-7-yloxy]ethyl}pyrazole-4-carboxylate] | –
